Measurements: patent publication US9499590B2, “Antibodies against and methods for producing vaccines for respiratory syncytial virus” (MEDIMMUNE, LLC, priority 2009, dated 2016)

Assays:
[1] = system: MEDI-524 (Numax™); assay: Binding ELISA of F-peptides; settings: peptide coated on plate
Description: Based in part upon the results of the MARM analysis above, F peptides were synthesized (done by AnaSpec, Inc. San Jose, Calif.). Each well of the assay plate was coated with […] of […] of a particular soluble RSV F-Peptide overnight at 2-8° C. After the plate was aspirated and washed with PBS/0.05% Tween-20 buffer, it was blocked by incubating with PBS/0.05% Tween-20/0.5% BSA buffer for one hour at ambient temperature. The plate was washed and MEDI-524 standard curve samples, test samples, MEDI-524 Reference Standard, and negative control were added to the washed plate. Following a one-hour incubation at ambient temperature, the plate was washed, and […] of a goat anti-human IgG-HRP (horseradish peroxidase) at 1:16,000 dilution was added to the plate. After washing, […] of 3,3′,5,5′-tetramethylbenzidine (TMB) substrate was then added to the plate and incubated at ambient temperature protected from light for 10 minutes. The enzymatic reaction was stopped by adding […] of 2N H2SO4, and the absorbance at 450 nm was measured using a microplate reader. […] After meeting all system suitability requirements, as well as meeting the criteria of the parallelism test, the ED50 ratio of the test sample to Reference Standard was calculated, and the results were expressed as a percentage of the Reference Standard binding activity. […]

[2] = system: MEDI-524 Mab; assay: Isothermal titration calorimetry (ITC) of F peptides with MEDI-524 Mab; type: binding; settings: 25 mM His, pH 6, 10° C.
Description: Isothermal Titration calorimetry assays (ITC) have been described (see, for example, Heerklotz H et al., Biophysical Journal, May 1999). Molecular interactions are defined by stoichiometry and a few thermodynamic parameters. All binding reactions are associated with the absorption or generation of heat. Therefore calorimetry is emerging as a premier tool for the characterisation of interactions of biological macromolecules. ITC is the only method that measures equilibrium constants, enthalpy and entropy in one single experiment. If the experiment is performed at different temperatures the important parameter, the heat capacity change, can be determined. ITC has become a standard method for investigating the binding of ligands to receptor molecules. Accordingly, ligands are mixed with receptors, and the subsequent heats of incorporation (or binding) are measured.
To evaluate the binding properties of the wild-type peptide (SEQ ID NO.28) to Numax™/MEDI-524 by using the ITC technique. The MEDI-524 Mab was titrated with SEQ ID NO.28 in the basis buffer 25 mM His, pH 6 at 10° C. SEQ ID NO.28: (MW=2732.14, no W, Y, or C). A working solution of 55 μM was prepared by diluting 30 μL of a 5 mg/mL peptide solution with 970 μL, of 25 mM His, pH 6 buffer to be used for the ITC titrations. A 1.15 μM (0.1706 mg/ml) working solution of MEDI-524 was used for the experiments (MW 148400, A280=1.47). […]

Substance	Binding to Numax™ compared with wild-type F protein epitope (SEQ ID NO. 1) [1]	binding strength lower compared to the SEQ ID NO.24 peptide [2]
F peptide with a histidine at position 262: F peptide with a histidine at position 262; SEQ ID number not stated (SEQ ID No: 13, 25 and 26 carry it) (NSELLSLIHDMPITNDQKKLMSNN)	more tightly	–
NSELLSLINDMPITNDQKKLMSNN-NH2 [SEQ ID NO.28]	–	~3 orders of magnitude
